According to patent publication US6916607B2, “PEPTIDES AND PO[…] FROM THE SU[…] OF THE RAT COR[…] […] COR[…] USES OF THESE PRODUCTS FOR DIAGNOSIS FOR DETECTION OR T[…]” (Institute Pasteur, priority 1988, dated 2005):

Test system: mRNA coding for SMR1 in the SMG
Assay: Regulation of the accumulation of mRNA coding for SMR1 in the SMG of the rat by androgens (RNA transfer and hybridization with SMR1 cDNA probe)
Type: in vivo, Wistar rats
Method: 10 weeks old male and female Wistar rats were obtained from Iffa-Credo. The androgens were removed by castration and 10 days later 35 mg of testosterone (Sterandryl retard, Roussel) were injected by the intraperitoneal route in the cases indicated. In the cases indicated, the same dose of testosterone was administered to female rats. 8 weeks old DBA/2 and “Swiss” mice were obtained from the Pasteur Institute.
The RNA was prepared from rat and mouse tissues as described in the literature (Tronik D. et al. 1987, EMBO J. 6, 983-987). The in vitro translation of the RNAs was carried out by using the mRNA-dependent translation system as a lysate in the presence of mRNA-dependent reticulocytes (Pelham H. RB et al., 1976, Eur. J. Biochem. 67, 247-256). The products were analysed by electrophoresis on a denaturing polyacrylamide-NaDodSO4 gel. […]
Furthermore, various amounts (as indicated in the figure) of RNA from the SMG of male rats and female rats were subjected to electrophoresis on a 2% agarose-formaldehyde gel, they were transferred to filters and hybridized with the cDNA probe coding for SMR1. […] As is apparent in part B, the mRNA coding for SMR1 accumulates in very large quantities in the SMG of male Wistar rats, since an amount as low as 1.5 ng of total RNA was sufficient to give a hybridization signal. […]

SMILES: C[C@]12CC[C@H]3[C@@H](CCC4=CC(=O)CC[C@@]43C)[C@@H]1CC[C@@H]2O [testosterone]
- accumulation of mRNA coding for SMR1 in the SMG (adult female rats, same dose (35 mg) of testosterone): caused the accumulation of mRNA coding for SMR1 in amounts similar to that observed in the males
- amount of mRNA coding for SMR1 in the SMG (castrated male rats, 35 mg testosterone by the intraperitoneal route 10 days after castration): restored the amount of mRNA coding for SMR1 to the same value as that observed in the non-castrated males
